From PMC3495945, “Org 214007-0: A Novel Non-Steroidal Selective Glucocorticoid Receptor Modulator with Full Anti-Inflammatory Properties and Improved Therapeutic Index” (PLoS ONE, 2012)

Tests used:
[1] = tested on: muscle tissue from arthritic mice; assay: Microarray on muscle tissue mRNA from CIA mice; type: in vivo, mouse; details: day 21, 2.5 hours after final oral dose, 1.5 mg/kg prednisolone or 0.3 mg/kg Org 214007-0, prednisolone = 100%
Description: Besides these groups of mice, one group of healthy mice (sham-immunized and vehicle-treated) was included. Collected tissue was used to isolate mRNA for microarray analysis. […] We also calculated a mean fold change for all induced and repressed genes by both compounds derived from this microarray. […] Two and a half hours after the final treatment animals were sacrificed and samples were collected from the thigh muscle (musculus tensor fasciae latae and musculus rectus femoris). Samples were stored immediately at −80°C and send to Covance (Princeton, New Jersey) for RNA extraction and subsequent analysis of gene expression on the Mouse Genome 430A 2.0 array. For statistical analysis, the. CEL files obtained after hybridization were analyzed with the R (www.r-project.org) and the BioConductor software package (www.bioconductor.org) as described previously. Normalization was done using gcrma. Building of the experimental design and calculation of the ratios was done with the limma package. Differentially expressed probe sets were selected on basis of the fold change and the adjusted p-value (Benjamini-Hochberg correction). Multivariate data analysis and clustering was done with standard methods in the R software package (www.r-project.org). A therapeutic index for Org 214007-0 was calculated in the same way as was described for the THP-1 microarray data.

GR [2] = molecular target: T1, GR (Homo sapiens, UniProt P04150); assay: U2OS GR.G9 IFNγ/TNFα-induced MCP-1 release (repression); type: cell-based; design: expressed in transfected cells; host or cells: U2OS (U2OS GR.G9); details: for Max. eff., repression of MCP-1 release: IFNγ/TNFα, relative to prednisolone (100%)
T1 sequence (P04150 1-777): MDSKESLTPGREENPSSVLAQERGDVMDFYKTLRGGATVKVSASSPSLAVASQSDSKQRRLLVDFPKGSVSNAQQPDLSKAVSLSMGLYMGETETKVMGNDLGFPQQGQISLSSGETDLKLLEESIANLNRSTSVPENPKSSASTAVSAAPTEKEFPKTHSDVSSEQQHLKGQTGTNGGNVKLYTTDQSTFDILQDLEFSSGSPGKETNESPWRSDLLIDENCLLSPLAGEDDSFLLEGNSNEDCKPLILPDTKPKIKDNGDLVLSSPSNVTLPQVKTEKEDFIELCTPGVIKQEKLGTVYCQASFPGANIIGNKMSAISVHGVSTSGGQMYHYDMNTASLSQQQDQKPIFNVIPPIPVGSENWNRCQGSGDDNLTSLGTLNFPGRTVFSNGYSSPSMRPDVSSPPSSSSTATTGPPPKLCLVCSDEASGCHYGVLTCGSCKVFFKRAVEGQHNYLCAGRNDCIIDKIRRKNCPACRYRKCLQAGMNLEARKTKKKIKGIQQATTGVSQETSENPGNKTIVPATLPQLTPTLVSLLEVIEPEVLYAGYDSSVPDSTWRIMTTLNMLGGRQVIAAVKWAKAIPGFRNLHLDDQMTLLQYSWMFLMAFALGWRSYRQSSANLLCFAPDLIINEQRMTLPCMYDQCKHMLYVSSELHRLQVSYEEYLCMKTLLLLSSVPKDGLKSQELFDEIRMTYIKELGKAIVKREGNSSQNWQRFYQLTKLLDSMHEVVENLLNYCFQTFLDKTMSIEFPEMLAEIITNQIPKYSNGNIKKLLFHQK
Method: To determine the repressive activity of GR ligands, cell line U2OS GR.G9, the human osteoblastic cell line U2OS, stably transfected with human GR, was used. Cells (10^4 cells/well) were incubated in 384-wells plates, in the presence of 50 ng/ml TNFα (R&D systems)/100 ng/ml IFNγ (Peprotech) and compound, for 18 hours. Hereafter, a mixture of two different antibodies to hMCP-1, one Eu-labeled and one APC-labeled, were added. One hour later the time-resolved fluorometric resonance energy transfer (TR-FRET) signal was measured. (for more detailed information see Supportive Information) (SI text).
U2OS GR.G9 cells (10^4 cells/well) in Dulbecco's MEM / HAM F12 medium supplemented with 5% charcoal treated bovine calf serum (Hyclone) (v/v) and Penicillin (10 U/ml) -Streptomycin (10 μg/ml) were incubated in 384-wells plates, in the presence of 50 ng/ml TNFα (R&D systems) / 100 ng/ml IFNγ (Peprotech) and compound, for 18 hours in a humidified atmosphere at 37°C under 6.5% CO2. Hereafter, a mixture of 2.2 nM anti-hMCP-1 labeled with fluorescent donor Europium (Eu) and 16.6 nM anti-hMCP-1 labeled with fluorescent acceptor Allophycocyanin (APC) was added to each well and left at roomtemperature for 1 hour. Finally, the time-resolved fluorometric resonance energy transfer (TR-FRET) signal was measured with the Victor^2TM V, 1420 Multilabel Counter (Wallac). Using 4-parameter curve fitting, IC50 values for the compounds were determined.

GR [3] = molecular target: T1, GR; assay: CHO-GR B4.8 MMTV-luciferase induction of gene expression (agonistic); type: cell-based; design: expressed in transfected cells; details: for Max. eff., MMTV-luc induction: relative to maximal effect of prednisolone (100%)
Description: For monitoring both human steroid receptor agonistic as well as antagonistic activity of compounds, Chinese hamster ovary (CHO) K1 cells stably co-transfected with the specific human steroid receptor and its respective reporter construct were used (as previously described).
For human glucocorticoid receptor (GR)-specific activity CHO-GR B4.8 cells containing both recombinant human GR as well as a reporter construct consisting of the mouse mammary tumor virus (MMTV) promotor and the luciferase reporter gene, were used. Compound was incubated alone (in the agonistic setup) or with 50 nM dexamethasone (in the antagonistic setup) overnight. Hereafter, 200 µl medium was removed and 50 µl luciferine substrate solution from the LucLite luminescence kit (Packard, Meriden, USA) was added. […] Percentage maximal antagonistic efficacy was related to the maximal antagonistic efficacy of reference GR antagonist Org 34116. Similar procedures were followed for the other human steroid receptor assays (for more detailed information see Supportive Information) (SI text).
For human glucocorticoid receptor (GR)-specific activity CHO-GR B4.8 cells containing both recombinant human GR as well as a reporter construct consisting of the mouse mammary tumor virus (MMTV) promotor and the luciferase reporter gene, were used. Compound was incubated alone (in the agonistic setup) or with 50 nM dexamethasone (in the antagonistic setup) in microtiter white culture plates seeded with 2.4 x 10^4 cells / 200 µl Dulbecco’s MEM/Nutrient Mix F12 medium (Gibco) supplemented with 5% charcoal treated defined bovine calf serum supplement (DBCSS, Hyclone, Utah, USA), and 10 U/ml Penicillin-10μg/ml Streptomycin (GibcoBRL) overnight at 37°C in the dark under a humidified atmosphere flushed with 5% CO2 in air. Hereafter, 200 µl medium was removed and 50 µl luciferine substrate solution from the LucLite luminescence kit (Packard, Meriden, USA) was added. After 10 minutes (when cell lysis was complete) luminescence of each sample was counted using a Topcount microplate luminescence counter. Percentage maximal agonistic efficacy was related to the maximal efficacy of dexamethasone. Percentage maximal antagonistic efficacy was related to the maximal antagonistic efficacy of reference GR antagonist Org 34116. EC50 value was calculated by 4-parameter curve fitting using the effect of 6 compound concentrations.

IC50 (GR [2]; IFNγ (100 ng/ml)/TNFα (50 ng/ml), 18 hours) [nM]	Max. eff., repression of MCP-1 release (GR [2]; listed as Org)	EC50 (GR [3]; CHO cells co-transfected with human GR and MMTV-luciferase, mean (±SD), read-out: EC50, MMTV-luc induction) [nM]	Max. eff., MMTV-luc induction (GR [3]; listed as Org)	Structure (SMILES)	Max. eff., mean induction of genes, microarray [1] [%]	Max. eff., mean repression of genes, microarray [1] [%]	Max. eff., repression of MCP-1 release (GR [2])	Max. eff., MMTV-luc induction (GR [3]) [%]
0.36	81 (±16) %	5.1	32 (±8.1) %	Cc1nnsc1C(=O)N[C@H]1CCN2c3ccc(C#N)cc3[C@@H](C)c3ccccc3[C@@H]2C1 [Org 214007-0]	25.7	87.7	81%	32
				C[C@]12C=CC(=O)C=C1CC[C@@H]1[C@@H]2[C@@H](O)C[C@@]2(C)[C@H]1CC[C@]2(O)C(=O)CO [prednisolone, reference compound]	100	100	100 (±9.6) %	100
